Assay: xn = mol fraction of the nth substance listed

CCOC(C)=O + CCCCCC
Settings | viscosity [mPa·s]
293.15 K, 101 kPa, x1 = 0.0998 | 0.3115
293.15 K, 101 kPa, x1 = 0.2074 | 0.3152
293.15 K, 101 kPa, x1 = 0.2978 | 0.3217
293.15 K, 101 kPa, x1 = 0.4046 | 0.3303
293.15 K, 101 kPa, x1 = 0.5034 | 0.3416
293.15 K, 101 kPa, x1 = 0.614 | 0.3599
293.15 K, 101 kPa, x1 = 0.6748 | 0.3683
293.15 K, 101 kPa, x1 = 0.8018 | 0.3963
293.15 K, 101 kPa, x1 = 0.9118 | 0.4248
298.15 K, 101 kPa, x1 = 0.0436 | 0.29
298.15 K, 101 kPa, x1 = 0.0998 | 0.2967
298.15 K, 101 kPa, x1 = 0.15 | 0.293
298.15 K, 101 kPa, x1 = 0.2074 | 0.3001
298.15 K, 101 kPa, x1 = 0.2504 | 0.298
298.15 K, 101 kPa, x1 = 0.2978 | 0.3052
298.15 K, 101 kPa, x1 = 0.3494 | 0.305
298.15 K, 101 kPa, x1 = 0.4046 | 0.3142
298.15 K, 101 kPa, x1 = 0.4477 | 0.314
298.15 K, 101 kPa, x1 = 0.4908 | 0.319
298.15 K, 101 kPa, x1 = 0.5034 | 0.3265
298.15 K, 101 kPa, x1 = 0.5489 | 0.326
298.15 K, 101 kPa, x1 = 0.614 | 0.3413
298.15 K, 101 kPa, x1 = 0.6485 | 0.342
298.15 K, 101 kPa, x1 = 0.6748 | 0.3496
298.15 K, 101 kPa, x1 = 0.7513 | 0.361
298.15 K, 101 kPa, x1 = 0.8018 | 0.3755
298.15 K, 101 kPa, x1 = 0.8507 | 0.384
298.15 K, 101 kPa, x1 = 0.9118 | 0.402
298.15 K, 101 kPa, x1 = 0.942 | 0.41
303.15 K, 101 kPa, x1 = 0.0998 | 0.283
303.15 K, 101 kPa, x1 = 0.2032 | 0.2874
303.15 K, 101 kPa, x1 = 0.2074 | 0.2861
303.15 K, 101 kPa, x1 = 0.2978 | 0.2901
303.15 K, 101 kPa, x1 = 0.4017 | 0.3009
303.15 K, 101 kPa, x1 = 0.4046 | 0.2991
303.15 K, 101 kPa, x1 = 0.5013 | 0.3117
303.15 K, 101 kPa, x1 = 0.5034 | 0.3092
303.15 K, 101 kPa, x1 = 0.599 | 0.3249
303.15 K, 101 kPa, x1 = 0.614 | 0.3231
303.15 K, 101 kPa, x1 = 0.6748 | 0.3317
303.15 K, 101 kPa, x1 = 0.8018 | 0.3565
303.15 K, 101 kPa, x1 = 0.8203 | 0.3611
303.15 K, 101 kPa, x1 = 0.9118 | 0.3812
303.15 K, 101.3 kPa, x1 = 0.106 | 0.2774
303.15 K, 101.3 kPa, x1 = 0.1995 | 0.2799
303.15 K, 101.3 kPa, x1 = 0.3097 | 0.2869
303.15 K, 101.3 kPa, x1 = 0.4073 | 0.2945
303.15 K, 101.3 kPa, x1 = 0.5055 | 0.3045
303.15 K, 101.3 kPa, x1 = 0.6094 | 0.3179
303.15 K, 101.3 kPa, x1 = 0.7062 | 0.3331
303.15 K, 101.3 kPa, x1 = 0.8061 | 0.3523
303.15 K, 101.3 kPa, x1 = 0.9036 | 0.3748
308.15 K, 101 kPa, x1 = 0.0436 | 0.272
308.15 K, 101 kPa, x1 = 0.15 | 0.274
308.15 K, 101 kPa, x1 = 0.2504 | 0.277
308.15 K, 101 kPa, x1 = 0.3494 | 0.282
308.15 K, 101 kPa, x1 = 0.4477 | 0.29
308.15 K, 101 kPa, x1 = 0.4908 | 0.294
308.15 K, 101 kPa, x1 = 0.5489 | 0.3
308.15 K, 101 kPa, x1 = 0.6485 | 0.313
308.15 K, 101 kPa, x1 = 0.7513 | 0.33
308.15 K, 101 kPa, x1 = 0.8507 | 0.349
308.15 K, 101 kPa, x1 = 0.942 | 0.371
313.15 K, 101 kPa, x1 = 0.0998 | 0.2582
313.15 K, 101 kPa, x1 = 0.2074 | 0.2604
313.15 K, 101 kPa, x1 = 0.2978 | 0.2643
313.15 K, 101 kPa, x1 = 0.4046 | 0.2723
313.15 K, 101 kPa, x1 = 0.5034 | 0.2806
313.15 K, 101 kPa, x1 = 0.614 | 0.2933
313.15 K, 101 kPa, x1 = 0.6748 | 0.3004
313.15 K, 101 kPa, x1 = 0.8018 | 0.3224
313.15 K, 101 kPa, x1 = 0.9118 | 0.3443

OCC(O)CO + CCC(C)O
viscosity [mPa·s], 101.33 kPa
Settings | x1 = 0.103 | x1 = 0.2005 | x1 = 0.3005 | x1 = 0.4065 | x1 = 0.5004 | x1 = 0.6005 | x1 = 0.6997 | x1 = 0.7989 | x1 = 0.8998
298.15 K | 4.899 | 8.259 | 14.21 | 26.4 | 50.58 | 96.78 | 190.1 | 327.9 | 521.9
308.15 K | 3.311 | 5.321 | 8.761 | 15.79 | 27.46 | 49.39 | 90.98 | 149.4 | 231.6
318.15 K | 2.387 | 3.648 | 5.727 | 9.681 | 15.6 | 26.39 | 45.42 | 71.57 | 107.4

CCOc1ccccc1 + CCOCC
298.15 K, 101 kPa
Settings | viscosity [mPa·s]
x2 = 0.0745 | 1.027
x2 = 0.0975 | 0.9993
x2 = 0.1855 | 0.8671
x2 = 0.2523 | 0.7856
x2 = 0.3026 | 0.7152
x2 = 0.3516 | 0.6667
x2 = 0.4501 | 0.5713
x2 = 0.5106 | 0.5154
x2 = 0.5579 | 0.4809
x2 = 0.6048 | 0.4406
x2 = 0.6882 | 0.3866
x2 = 0.7485 | 0.3494
x2 = 0.8303 | 0.3057
x2 = 0.9004 | 0.2674

CC(C)[C@H](N)C(=O)[O-].[Na+] + O
viscosity [mPa·s], 101 kPa
Settings | x1 = 0.004484 | x1 = 0.008927 | x1 = 0.01333 | x1 = 0.0177 | x1 = 0.02202 | x1 = 0.02631
293.15 K | 1.165 | 1.356 | 1.571 | 1.816 | 2.087 | 2.385
303.15 K | 0.919 | 1.057 | 1.214 | 1.382 | 1.573 | 1.786
313.15 K | 0.747 | 0.85 | 0.969 | 1.094 | 1.233 | 1.387
323.15 K | 0.621 | 0.702 | 0.793 | 0.889 | 0.994 | 1.11

CCCCCCCCCCCCCCCCCCCl + CCCCCCCCCCCC
298 K, 101.3 kPa
Settings | viscosity [mPa·s]
x2 = 0.1097 | 6.289
x2 = 0.2096 | 5.429
x2 = 0.3134 | 4.684
x2 = 0.4067 | 4
x2 = 0.5044 | 3.481
x2 = 0.6047 | 2.887
x2 = 0.6853 | 2.488
x2 = 0.805 | 2.012
x2 = 0.8971 | 1.662

CCOC(C)=O + CC(C)O
viscosity [mPa·s], 101.3 kPa
Settings | x1 = 0.1003 | x1 = 0.2045 | x1 = 0.3082 | x1 = 0.4005 | x1 = 0.4994 | x1 = 0.5952 | x1 = 0.7049 | x1 = 0.7916 | x1 = 0.9011
298.15 K | 1.326 | 0.9655 | 0.767 | 0.6606 | 0.5797 | 0.5283 | 0.4812 | 0.466 | 0.4473
303.15 K | 1.177 | 0.8717 | 0.701 | 0.6122 | 0.5391 | 0.4939 | 0.4525 | 0.4389 | 0.4233
308.15 K | 1.044 | 0.7861 | 0.6407 | 0.5644 | 0.5011 | 0.4617 | 0.4257 | 0.4153 | 0.4006
313.15 K | 0.9286 | 0.7126 | 0.5876 | 0.5224 | 0.4673 | 0.4332 | 0.4012 | 0.3911 | 0.3793
318.15 K | 0.8325 | 0.6477 | 0.5427 | 0.4856 | 0.4365 | 0.4066 | 0.3798 | 0.3711 | 0.3605
323.15 K | 0.7498 | 0.5901 | 0.501 | 0.4503 | 0.4088 | 0.3831 | 0.3586 | 0.3513 | 0.343

CCCCCCCCn1cc[n+](C)c1.[Cl-] + CCCCCCCC[n+]1ccn(C)c1.F[B-](F)(F)F
101 kPa
Settings | viscosity [mPa·s]
303.15 K, x1 = 0.2 | 529.1
308.15 K, x1 = 0.2 | 381.3
308.15 K, x1 = 0.4 | 756.6
313.15 K, x1 = 0.4 | 534.9
318.15 K, x1 = 0.4 | 386.7
318.15 K, x1 = 0.6 | 735.5
323.15 K, x1 = 0.6 | 523

CS(=O)(=O)[O-].C[N+](C)(CCO)CCO + CCCO
Settings | viscosity [mPa·s]
298.15 K, 101.33 kPa, x1 = 0.8978 | 965

CCCCCCCCn1cc[n+](C)c1.[Cl-] + CCCO
viscosity [mPa·s], 101 kPa
Settings | x2 = 0.1071 | x2 = 0.2407 | x2 = 0.3036 | x2 = 0.4887
298.15 K | 7238 | – | 912 | 178.5
313.15 K | – | 649 | 334.5 | –

CCCC[P+](CC)(CCCC)CCCC.[Br-] + O
Settings | viscosity [mPa·s]
303.15 K, 101 kPa, x1 = 0.008931 | 1.225
